# Patent US20210348164A1, “ENDOGENOUS CYTOPLASMIC ALU COMPLEMENTARY DNA IN AGE-RELATED MACULAR DEGENERATION” (University of Virginia Patent Foundation, priority 2018, published 2021)
# “Also recorded” adds a separate entry of the source.
# Tests used:
# [1] = system: L1 ORF2p-facilitated Alu RNA-induced RPE degeneration; test: Alu RNA-induced RPE degeneration in L1 ORF2-expressing Oryzomys palustris; format: in vivo; details: high dose (500 μmol)
# Description: Assessment of RPE degeneration. Subretinal injections were performed as previously described (Kaneko et al., 2011; Tarallo et al., 2012; Kerur et al., 2013; Fowler et al., 2014; Kim et al., 2014). Seven days after subretinal injection, RPE health was assessed by fundus photography and immunofluorescence staining of zonula occludens-1 (ZO-1) on RPE flat mounts (whole mount of posterior eye cup containing RPE and choroid layers). Mouse RPE/choroid flat mounts were fixed with 2% paraformaldehyde, stained with rabbit polyclonal antibodies against mouse ZO-1 (1:100; Invitrogen Corp. Carlsbad, Calif., United States of America) and visualized with Alexa-594 (Invitrogen Corp.). […]
# Quantification of RPE degeneration. Quantification of RPE degeneration was performed using two methodologies (binary assignment and cellular morphometry) as described previously (Kerur et al., 2018): Binary assignment (healthy versus unhealthy; Kerur et al., 2013; Fowler et al., 2014; Kim et al., 2014; Kerur et al., 2018) was independently performed by two blinded raters (inter-rater agreement=99.7%; Pearson r2=0.986, P<0.0001; Fleiss x=0.993, P<0.0001). […]
# [2] = system: L1 ORF2 reverse transcriptase activity; test: Alu cDNA formation in Oryzomys RPE cells with enforced L1 ORF2 expression (Alu-specific qPCR of cytoplasmic fractions); format: cell-based, rat L1 ORF2 in Oryzomys palustris RPE cells; details: high-dose
# Description: Subretinal and intravitreous injections. Subretinal injections (1 μl for mice, 3 μl for rat) or intravitreous injections (0.5 μl for mice, 2 μl for rat) in mice or rat were performed using a 35-gauge needle (Ito Co. Fuji, Japan). In vivo transfection of Alu RNA or mutant Alu RNA (3.6-300 ng per eye); Alu complementary DNA (cDNA; 0.0036-90 ng per eye); Alu reverse sequence cDNA (3.6-90 ng per eye); or 7SL cDNA (3.6-90 ng per eye) was performed using 10% NEUROPORTER™ transfection reagent (Genlantis, San Diego, Calif., United States of America) as previously described (Kaneko et al., 2011; Tarallo et al., 2012). 3TC, TM-3TC, Cpep-3TC, Cpep, PA-4 3TC, EFV, DLV, or NVP (50 μM/1 μl or 500 μM/1 μl) were administered by intravitreous injection (Mandal et al., 2011; Nasrolahi et al., 2013). […]
# Alu cDNA detection by real-time PCR. […] Then samples were directly amplified by real-time quantitative PCR (7900 HT Fast Real-Time PCR system, Applied Biosystems, Foster City, Calif., United States of America) with Power SYBR Green Master Mix. […] The copy number of Alu cDNA was calculated using standard curves that were obtained using serial dilutions of the plasmids containing an Alu Y sequence. […]
# [3] = system: reverse transcriptase activity of cytoplasmic fractions of F9 cells; test: In vitro reverse transcriptase activity of cytoplasmic fractions (Alu RNA-templated, Alu-specific qPCR); format: biochemical, mouse
# Description: In vitro reverse transcriptase (RT) activity. In vitro reverse transcriptase (RT) activity in nuclear and cytoplasmic protein fractions was assessed using an Alu RNA-templated reaction. The RT reaction was carried out in a 20 μl reaction mix containing Alu RNA template (10 ng); Alu primer ([…]); dNTPs mix; cytoplasmic or nuclear protein, and Quantiscript RT Buffer (Qiagen). The reaction mixture was incubated at 42° C. for 30 minutes. The resulting cDNA was quantified by qPCR using Alu RNA template-specific primers. The reaction to evaluate self-priming activity of Alu RNA was carried out in the absence of priming oligos in a 20 μl reaction mix containing: Alu RNA with 3′-U tail; dNTP mix; cytoplasmic protein from mouse RPE cells; and Quantiscript RT Buffer (Qiagen) as described above. The resulting cDNA product was quantified by qPCR using Alu RNA template-specific primers. Alu RNA tailed on the 3′ end with chain terminator dideoxy thymidine base (ddTTP) was generated using TdT (New England Biolabs (NEB)) according to the manufacturer's instructions. Alu RNA tailed on the 3′ end with chain terminator cordycepin tri-phosphate was generated using PAP (NEB) according to the manufacturer's instructions.
# [4] = system: Alu G25C RNA-induced RPE degeneration; test: Alu G25C RNA-induced RPE degeneration in wild-type mice; format: in vivo, mouse; details: WT mice; subretinal Alu G25C RNA
molecule,measurement,setting,value
"CC(C)Nc1cccnc1N1CCN(C(=O)c2cc3cc(NS(C)(=O)=O)ccc3[nH]2)CC1 [DLV, delavirdine]",Alu RNA-induced RPE degeneration,[1],blocked
"O=C1Nc2ccc(Cl)cc2[C@@](C#CC2CC2)(C(F)(F)F)O1 [EFV, efavirenz]",Formation of Alu cDNA following Alu RNA transfection,[2],inhibited
"L1 siRNA: siRNA targeting L1; cholesterol-conjugated mouse L1 siRNA (SEQ ID NOs: 48 and 49) in vivo, human L1 siRNA sequences in human cells (chain 1 ACUAUUACUCUGAUACCTT; chain 2 UGUACUAAGGUCAAAUCTT; cholesterol conjugated, position not given here)",Alu cDNA formation from Alu RNA (reverse transcriptase activity),[3],reduced Alu cDNA production; also recorded: reduced Alu cDNA formation
same,Alu G25C RNA-induced RPE degeneration,[4],prevented Alu G25C RNA-induced RPE degeneration
